Data published in ChEMBL document CHEMBL1125669, “Synthesis of potential dual-acting radiation sensitizer antineoplastic agents: 2,2-dimethylphosphoraziridines containing 2-nitroimidazoles or other electron-affinic moieties” (1991).

Assays:
Format in all cases: functional
Mus musculus [1] = assay: In vivo antitumor activity against P-388 leukemia in CDF1 mice at 128 mg or 331 umol by ip administration expressed as average wt. change determined between day 0 and day 6 of experiment
Mus musculus [2] = assay: In vivo antitumor activity against P-388 leukemia in CDF1 mice at 16 mg or 41 umol by ip administration expressed as average wt. change determined between day 0 and day 6 of experiment
Mus musculus [3] = assay: In vivo antitumor activity against P-388 leukemia in CDF1 mice at 32 mg or 83 umol by ip administration expressed as average wt. change determined between day 0 and day 6 of experiment
Mus musculus [4] = assay: In vivo antitumor activity against P-388 leukemia in CDF1 mice at 64 mg or 166 umol by ip administration expressed as average wt. change determined between day 0 and day 6 of experiment
Mus musculus [5] = assay: In vivo antitumor activity against P-388 leukemia in CDF1 mice at 8 mg or 21 umol by ip administration expressed as average wt. change determined between day 0 and day 6 of experiment
Mus musculus [6] = assay: In vivo antitumor activity against P-388 leukemia in CDF1 mice at 256 mg or 663 umol by ip administration expressed as average wt. change determined between day 0 and day 6 of experiment
Mus musculus [7] = assay: effect of drug treatment in combination with gamma radiation on P-388 leukemia in mice at 250 mg/kg and 200R expressed as average weight change
Mus musculus [8] = assay: effect of drug treatment in combination with gamma radiation on P-388 leukemia in mice at 250 mg/kg and 400R expressed as average weight change
Mus musculus [9] = assay: effect of drug treatment in combination with gamma radiation on P-388 leukemia in mice at 250 mg/kg and 600R expressed as average weight change
Mus musculus [10] = assay: In vivo antitumor activity against P-388 leukemia in CDF1 mice at 128 mg or 331 umol by ip administration expressed as median survival time of drug treated mice/median survival time of control mice x100
Mus musculus [11] = assay: In vivo antitumor activity against P-388 leukemia in CDF1 mice at 16 mg or 41 umol by ip administration expressed as median survival time of drug treated mice/median survival time of control mice x100
Mus musculus [12] = assay: effect of drug treatment in combination with gamma radiation on P-388 leukemia in mice at 250 mg/kg and 200R expressed as median survival time of drug treated mice/median survival time of control mice x100
Mus musculus [13] = assay: effect of drug treatment in combination with gamma radiation on P-388 leukemia in mice at 250 mg/kg and 400R expressed as median survival time of drug treated mice/median survival time of control mice x100
Mus musculus [14] = assay: effect of drug treatment in combination with gamma radiation on P-388 leukemia in mice at 250 mg/kg and 600R expressed as median survival time of drug treated mice/median survival time of control mice x100
Mus musculus [15] = assay: In vivo antitumor activity against P-388 leukemia in CDF1 mice at 8 mg or 21 umol by ip administration expressed as median survival time of drug treated mice/median survival time of control mice x100
Mus musculus [16] = assay: In vivo antitumor activity against P-388 leukemia in CDF1 mice at 256 mg or 663 umol by ip administration expressed as median survival time of drug treated mice/median survival time of control mice x100
Mus musculus [17] = assay: In vivo antitumor activity against P-388 leukemia in CDF1 mice at 32 mg or 83 umol by ip administration expressed as median survival time of drug treated mice/median survival time of control mice x100
Mus musculus [18] = assay: In vivo antitumor activity against P-388 leukemia in CDF1 mice at 64 mg or 166 umol by ip administration expressed as median survival time of drug treated mice/median survival time of control mice x100
Mus musculus [19] = assay: In vivo antitumor activity against P-388 leukemia in CDF1 mice at 128 mg or 335 umol by ip administration expressed as average wt. change determined between day 0 and day 6 of experiment
Mus musculus [20] = assay: In vivo antitumor activity against P-388 leukemia in CDF1 mice at 32 mg or 84 umol by ip administration expressed as average wt. change determined between day 0 and day 6 of experiment
Mus musculus [21] = assay: In vivo antitumor activity against P-388 leukemia in CDF1 mice at 256 mg or 670 umol by ip administration expressed as average wt. change determined between day 0 and day 6 of experiment
Mus musculus [22] = assay: In vivo antitumor activity against P-388 leukemia in CDF1 mice at 64 mg or 167 umol by ip administration expressed as average wt. change determined between day 0 and day 6 of experiment
Mus musculus [23] = assay: In vivo antitumor activity against P-388 leukemia in CDF1 mice at 16 mg or 42 umol by ip administration expressed as average wt. change determined between day 0 and day 6 of experiment
Mus musculus [24] = assay: In vivo antitumor activity against P-388 leukemia in CDF1 mice at 128 mg or 335 umol by ip administration expressed as median survival time of drug treated mice/median survival time of control mice x100
Mus musculus [25] = assay: In vivo antitumor activity against P-388 leukemia in CDF1 mice at 16 mg or 42 umol by ip administration expressed as median survival time of drug treated mice/median survival time of control mice x100
Mus musculus [26] = assay: In vivo antitumor activity against P-388 leukemia in CDF1 mice at 64 mg or 167 umol by ip administration expressed as median survival time of drug treated mice/median survival time of control mice x100
Mus musculus [27] = assay: In vivo antitumor activity against P-388 leukemia in CDF1 mice at 256 mg or 670 umol by ip administration expressed as median survival time of drug treated mice/median survival time of control mice x100
Mus musculus [28] = assay: In vivo antitumor activity against P-388 leukemia in CDF1 mice at 32 mg or 84 umol by ip administration expressed as median survival time of drug treated mice/median survival time of control mice x100
Mus musculus [29] = assay: effect of drug treatment in combination with gamma radiation on P-388 leukemia in mice at 120 mg/kg and 0R expressed as average weight change
Mus musculus [30] = assay: effect of drug treatment in combination with gamma radiation on P-388 leukemia in mice at 120 mg/kg and 200R expressed as average weight change
Mus musculus [31] = assay: effect of drug treatment in combination with gamma radiation on P-388 leukemia in mice at 120 mg/kg and 400R expressed as average weight change
Mus musculus [32] = assay: In vivo antitumor activity against P-388 leukemia in CDF1 mice at 100 mg or 430 umol by ip administration expressed as average wt. change determined between day 0 and day 6 of experiment
Mus musculus [33] = assay: effect of drug treatment in combination with gamma radiation on P-388 leukemia in mice at 120 mg/kg and 600R expressed as average weight change
Mus musculus [34] = assay: In vivo antitumor activity against P-388 leukemia in CDF1 mice at 200 mg or 861 umol by ip administration expressed as average wt. change determined between day 0 and day 6 of experiment
Mus musculus [35] = assay: In vivo antitumor activity against P-388 leukemia in CDF1 mice at 100 mg or 430 umol by ip administration expressed as median survival time of drug treated mice/median survival time of control mice x100
Mus musculus [36] = assay: effect of drug treatment in combination with gamma radiation on P-388 leukemia in mice at 120 mg/kg and 0R expressed as median survival time of drug treated mice/median survival time of control mice x100
Mus musculus [37] = assay: effect of drug treatment in combination with gamma radiation on P-388 leukemia in mice at 120 mg/kg and 200R expressed as median survival time of drug treated mice/median survival time of control mice x100
Mus musculus [38] = assay: effect of drug treatment in combination with gamma radiation on P-388 leukemia in mice at 120 mg/kg and 400R expressed as median survival time of drug treated mice/median survival time of control mice x100
Mus musculus [39] = assay: effect of drug treatment in combination with gamma radiation on P-388 leukemia in mice at 120 mg/kg and 600R expressed as median survival time of drug treated mice/median survival time of control mice x100
Mus musculus [40] = assay: In vivo antitumor activity against P-388 leukemia in CDF1 mice at 200 mg or 861 umol by ip administration expressed as median survival time of drug treated mice/median survival time of control mice x100

Compound CC1(C)CN1P(=O)(NC(=O)OCCn1ccnc1[N+](=O)[O-])N1CC1(C)C (configuration not stated) has an Average weight change (Mus musculus [1]) of -1.1 g, an Average weight change (Mus musculus [2]) of 0.6 g and an Average weight change (Mus musculus [3]) of 0.8 g. The Average weight change (Mus musculus [4]) was -0.5 g, the Average weight change (Mus musculus [5]) was 1.6 g and the Average weight change (Mus musculus [6]) was -1 g. It also gave an Average weight change (Mus musculus [7]) of 1.92 g, an Average weight change (Mus musculus [8]) of 1.17 g and an Average weight change (Mus musculus [9]) of 0.67 g. For the same compound, the T/C (Mus musculus [10]) was 156%, the T/C (Mus musculus [11]) was 125% and the T/C (Mus musculus [12]) was 190%. It also gave a T/C (Mus musculus [13]) of 200%, a T/C (Mus musculus [14]) of 230% and a T/C (Mus musculus [15]) of 113%. For the same compound, the T/C (Mus musculus [16]) was 169%, the T/C (Mus musculus [17]) was 125% and the T/C (Mus musculus [18]) was 144%.
For CC1(C)CN1P(=O)(NC(=O)OCc1ccccc1[N+](=O)[O-])N1CC1(C)C (configuration not stated), the Average weight change (Mus musculus [19]) was -1.1 g, the Average weight change (Mus musculus [20]) was -0.4 g and the Average weight change (Mus musculus [5]) was 0.6 g. For the same compound, the Average weight change (Mus musculus [21]) was -1.5 g, the Average weight change (Mus musculus [22]) was -1.1 g and the Average weight change (Mus musculus [23]) was 0 g. For the same compound, the T/C (Mus musculus [24]) was 141%, the T/C (Mus musculus [25]) was 106% and the T/C (Mus musculus [26]) was 129%. For the same compound, the T/C (Mus musculus [15]) was 106%, the T/C (Mus musculus [27]) was 153% and the T/C (Mus musculus [28]) was 118%.
Work on CCOP(=O)(N1CC1(C)C)N1CC1(C)C (configuration not stated) yielded an Average weight change (Mus musculus [29]) of 0.83 g, an Average weight change (Mus musculus [30]) of 0.33 g and an Average weight change (Mus musculus [31]) of -0.93 g. The Average weight change (Mus musculus [32]) was -2.6 g, the Average weight change (Mus musculus [33]) was -3.58 g and the Average weight change (Mus musculus [34]) was -5.2 g. For the same compound, the T/C (Mus musculus [35]) was 289%, the T/C (Mus musculus [36]) was 400% and the T/C (Mus musculus [37]) was 250%. For the same compound, the T/C (Mus musculus [38]) was 160%, the T/C (Mus musculus [39]) was 80% and the T/C (Mus musculus [40]) was 433%.
